In the first test the test system is PAF-induced aggregation of human thrombocytes. Briefly: Inhibition of PAF-induced blood platelet aggregation in vitro. The following applies: Homo sapiens, read-out: PAF-Antag. IC50. The test is classed as cell-based. Here is the method: 1. Inhibition of blood platelet aggregation in vitro
The PAF-induced aggregation of human thrombocytes in vitro is used to determine PAF-antagonistic activity. To obtain thrombocyte-rich plasma (TRP), blood is taken from an uncongested vein using a plastic syringe containing 3.8% sodium citrate solution. The ratio of sodium citrate solution to blood is 1:9. After careful mixing the citrate blood is centrifuged for 20 minutes at 150 g (1200 rpm). The thrombocyte aggregation is measured using the method devised by Born and Cross (G. V. R. Born and M. J. Cross, J. Physiol. 168, 178 (1963)), by adding an aggregation initiator (PAF) to the TRP with constant stirring.
The test substance is added 2 to 3 minutes before aggregation is initiated in a volume of 10 ul. Either distilled water, ethanol and/or dimethylsulphoxide (each in suitable concentrations) can be used as solvent.
Control mixtures contain corresponding volumes of these solvents. After the initial absorption has been recorded (2 to 3 minutes) aggregation is induced with PAF (5×10^-8 M).
The maximum of the first aggregation wave is used to assess the effects of the substance. The PAF-induced maximum absorption rate (=maximum aggregation×100%) is tested at the same time in a parallel mixture (=control mixture in one of the channels of the two-channel aggregometer) as each test mixture (second channel) and is used as a 100% value.
The aggregation value attained under the effect of the test substance is given as a percentage of the control value, i.e. less than 100% in the case of an inhibition of aggregation and over 100% in the case of an increase.
Each test substance is investigated at concentrations of from 10^-3 to 10^-8 M with a random sampling of n=4 with regard to an inhibitory effect on the PAF-induced thrombocyte aggregation. Then a concentration-activity curve is drawn up using 3 concentrations and the IC50 is determined (concentration giving a 50% inhibition of aggregation).
As to `CCc1cc2c(s1)-n1c(C)nnc1CNC2c1ccccc1Cl` (stereo not shown) [compound 90], the half-maximal inhibitory concentration (IC50) (commonly the concentration at which inhibition is half-maximal) is less than 5 µM.

Turning to `Cc1nnc2n1-c1sc(Br)cc1C(c1ccccc1Br)NC2` (stereo not shown) [compound 91], the IC50 was less than 5 µM.

For the compound `Clc1ccccc1C1NCc2nncn2-c2sc(Br)cc21` (stereo not shown) [compound 92], the concentration for half-maximal inhibition (IC50) was determined as 140 µM.

For the compound `NCc1nnc2n1-c1sc(Br)cc1C(c1ccccc1Cl)NC2` (stereo not shown) [compound 93], the IC50 was less than 50 µM.

For `Cc1nnc2n1-c1sc(Br)cc1C(c1ccccc1Cl)N(CCO)C2` (stereo not shown) [compound 94], the 50% inhibitory concentration (IC50) was 11 µM.

As for `Cc1nnc2n1-c1sc(Br)cc1C(c1ccccc1Cl)N(C)C2` (stereo not shown) [compound 95], the half-maximal inhibitory concentration (IC50) was 7.4 µM.

Regarding `CN(C)CCc1nnc2n1-c1sc(Br)cc1C(c1ccccc1Cl)N(C)C2` (stereo not shown) [compound 96], the half-inhibitory concentration (IC50) was determined as 26 µM.

Turning to `CCC1NC(c2ccccc2Cl)c2cc(Br)sc2-n2c(C)nnc21` (stereo not shown) [compound 97], the concentration for half-maximal inhibition (IC50) is less than 100 µM.

Take `Cc1ccccc1C1NCc2nnc(C)n2-c2ccccc21` (stereo not shown) [compound 98]: the IC50 turned out to be 63 µM.

`COc1ccccc1C1NCc2nnc(C)n2-c2ccccc21` (stereo not shown) [compound 99]: the IC50 came to 218 µM.

As to `COc1ccc2c(c1)C(c1ccccc1Cl)NCc1nnc(C)n1-2` (stereo not shown) [compound 100], the IC50 is less than 50 µM.

For `Cc1cc2c(cc1C)-n1c(C)nnc1CNC2c1ccccc1Cl` (stereo not shown) [compound 101], the IC50 was determined as 342 µM.

For `Cc1ccc2c(c1)C(c1ccccc1Cl)NCc1nnc(C)n1-2` (stereo not shown) [compound 102], the concentration for half-maximal inhibition (IC50) is less than 5 µM.

As to `Cc1ccc2c(c1)C(c1ccccc1Cl)N(C)Cc1nnc(C)n1-2` (stereo not shown) [compound 104], the half-maximal inhibitory concentration (IC50) is 81 µM.

As to `Cc1ccc2c(c1)-n1c(C)nnc1CNC2c1ccccc1Cl` (stereo not shown) [compound 105], the IC50 was determined as 277 µM.

The test is the same for the next values; noted with them: table 3 (formula with R7), human thrombocyte-rich plasma, aggregation induced with PAF 5×10^-8 M, read-out: PAF-Antag. IC50.
For `CCOC(=O)c1nc(C)n2c1CNC(c1ccccc1Cl)c1cc(Cl)ccc1-2` (stereo not shown) [compound 103], the concentration for half-maximal inhibition (IC50) was 519 µM.

The values are drawn from patent US4621083A, “PAF-antagonistic diazepines” (Boehringer Ingelheim KG, priority 1984, dated 1986).
